Experimental data taken from patent US20150139949A1, “ANTI-VIRAL COMBINATION THERAPY” (priority 2011, published 2015).
Where two headings read alike, the source gives them in different places.

What was measured:
HCMV = HCMV replication / titer in infected fibroblasts; format: cell-based
HCV [1] = experiment: HCV replication; format: cell-based, hepatitis C virus
HCV [2] = experiment: HCV replication in cell cultures, ACC inhibitor combined with HCV protease inhibitor (Example 1); format: cell-based
Description: HCV encoded proteolytic activity is required for infection and replication. The present example concerns the combined use of an ACC inhibitors (e.g., TOFA) and an HCV protease inihibitor (e.g., boceprevir) to antagonize viral replication. In each assay, various concentrations of TOFA are combined with various concentrations of boceprevir and cell cultures exposed to HCV are assayed for virus replication. In one series of tested combinations, a physiological concentration of boceprivir is held constant as the dose of TOFA is increased. Control cultures are treated with no drug, boceprivir alone or the various concentrations of TOFA alone. Samples are taken at 24, 48, 72 and 96 hours after initiation of drug treatment. The antiviral effect of boceprivir plus each concentration of TOFA is then compared to the activity of boceprivir alone or the various concentrations of TOFA alone. The relative toxicity of the different combinations is also assayed.

[3] = cited from earlier work
influenza A = influenza A replication; format: cell-based
[4] = test system: herpes simplex virus-1 (HSV-1); experiment: HSV-1 replication; format: cell-based; conditions: nanomolar concentrations
hELOVL6 = target: T1, hELOVL6 (Homo sapiens, UniProt Q9H5J4); conditions: read-out: hELOVL6 IC50; cited from earlier work
T1 sequence (Q9H5J4 1-265): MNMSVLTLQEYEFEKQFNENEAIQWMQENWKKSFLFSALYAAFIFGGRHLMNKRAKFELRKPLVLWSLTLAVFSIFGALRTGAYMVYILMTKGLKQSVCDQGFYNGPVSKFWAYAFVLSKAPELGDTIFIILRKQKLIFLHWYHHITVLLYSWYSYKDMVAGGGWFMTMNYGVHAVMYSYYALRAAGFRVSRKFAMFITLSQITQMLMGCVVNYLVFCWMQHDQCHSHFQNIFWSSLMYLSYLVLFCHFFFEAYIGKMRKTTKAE

hELOVL3 = target: T2, hELOVL3 (Homo sapiens, UniProt Q9HB03); conditions: cited from earlier work
T2 sequence (Q9HB03 1-270): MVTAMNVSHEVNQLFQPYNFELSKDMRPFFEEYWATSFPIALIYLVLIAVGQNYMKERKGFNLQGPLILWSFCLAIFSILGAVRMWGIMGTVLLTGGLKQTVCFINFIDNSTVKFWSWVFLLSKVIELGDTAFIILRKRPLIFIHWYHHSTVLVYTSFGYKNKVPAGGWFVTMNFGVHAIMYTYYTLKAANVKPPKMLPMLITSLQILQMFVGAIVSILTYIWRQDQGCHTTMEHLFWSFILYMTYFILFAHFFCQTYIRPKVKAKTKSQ

[5] = test system: triacylglycerol (TG) synthesis; conditions: cited from earlier work
[6] = test system: cholesterol ester (CE) synthesis; conditions: cited from earlier work
MDCK cells = experiment: host cell toxicity in influenza A experiment; format: cell-based; conditions: 0.5 mM and 1 mM, 24 hours
adenovirus = adenovirus replication / titer; format: cell-based; conditions: for decrease of adenovirus titer: MRC2 cells

Compound: CCCCCCCCCCCCCCOc1ccc(C(=O)O)o1 [TOFA, 5-(tetradecyloxy)-2-furoic acid]
- inhibition of HCMV replication (HCMV): inhibited the replication
- inhibition of HCV replication (HCV [1]): inhibited the replication
- magnitude of the therapeutic effect (HCV [2]; given TOFA concentration, boceprivir also present): increased
- concentration of TOFA required to produce a 10-fold reduction in HCV replication (HCV [2]; in the presence of a pharmacologically acceptable concentration of boceprivir): markedly reduced
- adverse effects ([3]; rat, in vivo, 100 mg/kg/day): no adverse effects are observed
- teratogenicity ([3]; rat, in vivo, 150 mg/kg/day): not teratogenic
- oral LD50 ([3]; rats, oral): greater than 5,000 mg/kg

Compound: CCC/C=C/C/C=C/C=C/C=N/NN=O [triacsin C]
- inhibition of HCMV replication (HCMV; nanomolar concentrations): inhibit the replication
- inhibition of influenza A replication (influenza A; nanomolar concentrations): inhibit the replication
- inhibition of HSV-1 replication [4]: inhibit the replication
- inhibition of HCV replication (HCV [1]; nanomolar concentrations): inhibit the replication

Compound: N=C(N)NCc1cccc([131I])c1 [MIBG, meta-iodobenzylguanidine]
- reduction of HCMV titer (HCMV; 50 μM, infected MRCS fibroblasts): about 70%

Compound: O=C(Nc1ccc(C(F)(F)F)cc1)N1C2CCC1CC(S(=O)(=O)c1ccccn1)C2 (stereo not drawn) [endo-1w]
- IC50 (hELOVL6): 0.079 µM
- IC50 (hELOVL3): 6.94 µM

Compound: CCC(C)[C@@H]1C(=O)/C(=C(/O)[C@@H]2[C@@H]3[C@H](C)C[C@H](C)C[C@@H]3C=C[C@@H]2[C@]2(C)O[C@H]2C)C(=O)N1C (stereo partly drawn) [PF-1052]
- inhibition of HCMV replication (HCMV; 10 μM): profoundly inhibits
- inhibition of TG synthesis [5]: inhibits both CE and TG synthesis in a dose dependent manner
- inhibition of CE synthesis [6]: inhibits both CE and TG synthesis in a dose dependent manner

Compound: COC(=O)c1c2c(c3ccccc3c1O)OC(C)(C)C=C2 [rubimaillin]
- inhibition of CE synthesis [6]: selectively inhibits CE synthesis

Compound: NOCC(=O)O [AOAA, aminooxyacetic acid]
- inhibition of HCMV replication (HCMV): inhibited the replication
- decrease of HCMV replication (HCMV; 0.5 mM): 100 fold
- decrease of influenza A replication (influenza A): at least 1000 fold
- inhibition of influenza A replication (influenza A): inhibited the replication
- host cell toxicity (MDCK cells): no evidence of host cell toxicity
- inhibition of adenovirus replication (adenovirus): inhibited the replication
- decrease of adenovirus titer (adenovirus; 0.5 mM): 20 fold
- decrease of adenovirus titer (adenovirus; 1 mM): 500 fold

Compound: CCCCS(=O)(=O)N1CCC[C@@H](C(=O)Nc2ccc(OC(C)C)cc2)C1
- IC50 (hELOVL6): 0.93 µM

Compound: CCCCS(=O)(=O)N1C[C@H]2CC[C@@H]1[C@H](C(=O)Nc1ccc(OC)cc1)C2
- IC50 (hELOVL6): 1.71 µM

Compound: CC(C)Oc1ccc(NC(=O)[C@@H]2C[C@@H]3CC[C@H]2N(S(=O)(=O)c2cn(C)cn2)C3)cc1
- IC50 (hELOVL6): 0.22 µM
- IC50 (hELOVL3): 1.51 µM
